Data as given in patent publication US12629385B2, “Stable AST-3424 injection preparation and preparation method” (OBI PHARMA, INC., priority 2019, dated 2026).

Columns and labels:
[1] = Solubility test of AST-3424 at 25° C. (shaking incubator, HPLC content, pH); assay type: physicochemical; conditions: for Content (solubility study): 25° C.
Description: An appropriate amount of AST-3424 (hereinafter referred to as the active pharmaceutical ingredient or API) was measured, and put in a suitable container containing 40 ml of the above solution (20 ml for an organic solvent) until there were excessive AST-3424 oil droplets in the solution.
The samples were placed in a constant-temperature shaking incubator, the temperature of which was maintained at 25° C. The samples were shaken at an appropriate speed (100 rpm). Sampling was carried out at each predetermined time point as listed in Table 1, and the pH was examined. Then, the samples were centrifuged (10000 rpm, 10 min), and diluted to a concentration suitable for HPLC analysis (note: accurately recording the dilution ratio after the test) by adding the corresponding solution or organic solvent (dissolving API for solubility study), so as to obtain solubility data.
(§1) For samples used for the assay in the solubility study, about 1 ml of the culture medium was measured, then the resultant was centrifuged at 10000 rpm for 10 min, and the clear solution in […] was collected for HPLC analysis. For the study on solution stability, the samples could be directly injected into HPLC for analysis.
(§2) Content determination by HPLC method: AST-3424 was used as an external standard for quantitation.
According to the results of solution stability, AST-3424 was very unstable in the pH4.5 acetate buffer. Therefore, the solubility was tested in the pH6.8 phosphate buffer, the pH7.4 phosphate buffer, the pH10.0 alkaline borate buffer, and the purified water. An appropriate amount of AST-3424 was weighed and put into 40 mL of medium (ethanol/propylene glycol: 8 mL, 50:50V/V) until there were excessive floccules in the solution. If the solubility of API in the aqueous solution was greater than 2% (20 mg/ml), there was no need to add more API.

[2] = Study on solution stability of AST-3424 in different solutions (HPLC content, pH); assay type: physicochemical
Description: Approximate 107.32 mg of AST-3424 (50% v/v, ethanol) was measured, and put in 50-ml volumetric flasks, to which solvents (organic solvents, buffer solutions, or purified water) were added to the scale, respectively. At each predetermined time point, 1 ml of the sample was measured for HPLC analysis. If API was stable in different pH solutions, the sampling time would be extended, e.g., 5 days or longer.
as §1, §2
UVDAD detector: wavelength: 230 nm. C18 column, column temperature: 25° C.
• A: 10 mmol/L ammonium acetate solution obtained by dissolving ammonium acetate in a mixed solvent of 95% water and 5% acetonitrile by volume; • B: 8 mmol/L ammonium acetate solution obtained by dissolving ammonium acetate in a mixed solvent of 95% acetonitrile and 5% water by volume;
Gradient elution was performed.

Structure (SMILES): C[C@H](OP(=O)(N1CC1)N1CC1)c1ccc([N+](=O)[O-])c(Oc2cccc(C(=O)N(C)C)c2)c1 [AST-3424, (S)-1-(3-(3-N,N-dimethylaminocarbonyl)phenoxyl-4-nitrophenyl)-1-ethyl-N,N′-bis(ethylene)phosphoramidate]
- Content (solubility study) ([1]; Ethanol/propylene glycol (50:50, v/v), 1 h): 271.28 mg/mL
- Content (solubility study) ([1]; Ethanol/propylene glycol (50:50, v/v), 8 h): 301.33 mg/mL
- Content (solubility study) ([1]; Ethanol/propylene glycol (50:50, v/v), 24 h): 298.85 mg/mL
- Solubility, description of terms ([1]; alcohol solvents such as ethanol/propylene glycol (50:50, v/v)): Freely soluble
- pH value (solubility study) ([1]; excess AST-3424 in pH 6.8 phosphate buffer, 1 h): 6.856
- pH value (solubility study) ([1]; excess AST-3424 in pH 6.8 phosphate buffer, 4 h): 6.837
- pH value (solubility study) ([1]; excess AST-3424 in pH 6.8 phosphate buffer, 8 h): 6.855
- pH value (solubility study) ([1]; excess AST-3424 in pH 6.8 phosphate buffer, 24 h): 6.841
- pH value (solubility study) ([1]; excess AST-3424 in pH 6.8 phosphate buffer, 48 h): 6.860
- pH value (solubility study) ([1]; excess AST-3424 in pH 7.4 phosphate buffer, 1 h): 7.477
- pH value (solubility study) ([1]; excess AST-3424 in pH 7.4 phosphate buffer, 4 h): 7.462
- pH value (solubility study) ([1]; excess AST-3424 in pH 7.4 phosphate buffer, 8 h): 7.475
- pH value (solubility study) ([1]; excess AST-3424 in pH 7.4 phosphate buffer, 24 h): 7.455
- pH value (solubility study) ([1]; excess AST-3424 in pH 7.4 phosphate buffer, 48 h): 7.482
- pH value (solubility study) ([1]; excess AST-3424 in pH 10.0 alkaline borate buffer, 1 h): 9.998
- pH value (solubility study) ([1]; excess AST-3424 in pH 10.0 alkaline borate buffer, 4 h): 9.980
- pH value (solubility study) ([1]; excess AST-3424 in pH 10.0 alkaline borate buffer, 8 h): 9.971
- pH value (solubility study) ([1]; excess AST-3424 in pH 10.0 alkaline borate buffer, 24 h): 9.932
- pH value (solubility study) ([1]; excess AST-3424 in pH 10.0 alkaline borate buffer, 48 h): 9.952
- pH value (solubility study) ([1]; excess AST-3424 in purified water, 1 h): 5.004
- pH value (solubility study) ([1]; excess AST-3424 in purified water, 4 h): 5.651
- pH value (solubility study) ([1]; excess AST-3424 in purified water, 8 h): 5.971
- pH value (solubility study) ([1]; excess AST-3424 in purified water, 24 h): 6.378
- pH value (solubility study) ([1]; excess AST-3424 in purified water, 48 h): 6.512
- Solubility (initial investigation, words) ([1]; methanol, propanol, butanol, ethylene glycol, propylene glycol, glycerol, 1,3-butanediol, 1,2-butanediol): good solubility
- Content (solubility study) ([1]; pH 6.8 (phosphate buffer), 4 h): 22.92 mg/mL
- Content (solubility study) ([1]; pH 6.8 (phosphate buffer), 8 h): 23.03 mg/mL
- pH of the solutions of API at different time points ([1]; pH6.8, pH7.4 and pH10.0 media): remained unchanged
- Content (solubility study) ([1]; pH 7.4 (phosphate buffer), 1 h): 23.65 mg/mL
- Content (solubility study) ([1]; pH 7.4 (phosphate buffer), 4 h): 23.47 mg/mL
- Content (solubility study) ([1]; pH 7.4 (phosphate buffer), 8 h): 23.56 mg/mL
- Content (solubility study) ([1]; pH 7.4 (phosphate buffer), 24 h): 23.65 mg/mL
- Content (solubility study) ([1]; pH 10.0 (alkaline borate buffer), 1 h): 23.50 mg/mL
- Content (solubility study) ([1]; pH 10.0 (alkaline borate buffer), 4 h): 23.56 mg/mL
- Content (solubility study) ([1]; pH 10.0 (alkaline borate buffer), 8 h): 23.48 mg/mL
- Content (solubility study) ([1]; pH 10.0 (alkaline borate buffer), 24 h): 23.49 mg/mL
- Solubility, description of terms ([1]; water, pH6.8 phosphate buffer, pH7.4 phosphate buffer, pH10.0 alkaline borate buffer): sparingly soluble
- pH value ([2]; AST-3424 solution in pH 4.5 acetate buffer, 0 h): 4.497
- pH value ([2]; AST-3424 solution in pH 4.5 acetate buffer, 72 h): 4.477
- pH value ([2]; AST-3424 solution in pH 6.8 phosphate buffer, 0 h): 6.815
- pH value ([2]; AST-3424 solution in pH 6.8 phosphate buffer, 72 h): 6.855
- pH value ([2]; AST-3424 solution in pH 7.4 phosphate buffer, 0 h): 7.481
- pH value ([2]; AST-3424 solution in pH 7.4 phosphate buffer, 72 h): 7.534
- pH value ([2]; AST-3424 solution in pH 10.0 alkaline borate buffer, 0 h): 9.984
- pH value ([2]; AST-3424 solution in pH 10.0 alkaline borate buffer, 72 h): 10.023
- pH value ([2]; AST-3424 solution in purified water, 0 h): 5.152
- pH value ([2]; AST-3424 solution in purified water, 72 h): 6.435
- Content ([2]; Ethanol/propylene glycol (50:50, v/v), 0 h, room temperature): 1.295 mg/mL
- Content ([2]; Ethanol/propylene glycol (50:50, v/v), 1 h, room temperature): 1.287 mg/mL
- Content ([2]; Ethanol/propylene glycol (50:50, v/v), 4 h, room temperature): 1.287 mg/mL
- Content ([2]; Ethanol/propylene glycol (50:50, v/v), 8 h, room temperature): 1.287 mg/mL
- Content ([2]; Ethanol/propylene glycol (50:50, v/v), 24 h, room temperature): 1.302 mg/mL
- Content ([2]; Ethanol/propylene glycol (50:50, v/v), 48 h, room temperature): 1.284 mg/mL
- Content ([2]; Ethanol/propylene glycol (50:50, v/v), 72 h, room temperature): 1.275 mg/mL
- Content ([2]; Ethanol, 0 h, room temperature): 1.238 mg/mL
- Content ([2]; Ethanol, 1 h, room temperature): 1.280 mg/mL
- Content ([2]; Ethanol, 4 h, room temperature): 1.246 mg/mL
- Content ([2]; Ethanol, 8 h, room temperature): 1.240 mg/mL
- Content ([2]; Ethanol, 24 h, room temperature): 1.240 mg/mL
- Content ([2]; Ethanol, 48 h, room temperature): 1.278 mg/mL
- Content ([2]; Ethanol, 72 h, room temperature): 1.236 mg/mL
- Content ([2]; Purified water, 0 h, room temperature): 1.186 mg/mL
- Content ([2]; Purified water, 1 h, room temperature): 1.126 mg/mL
- Content ([2]; Purified water, 4 h, room temperature): 1.056 mg/mL
- Content ([2]; Purified water, 8 h, room temperature): 1.005 mg/mL
- Content ([2]; Purified water, 24 h, room temperature): 0.918 mg/mL
- Content ([2]; Purified water, 48 h, room temperature): 0.860 mg/mL
- Content ([2]; Purified water, 72 h, room temperature): 0.810 mg/mL
- Solution stability ([2]; pH4.5 acetate buffer): very unstable
- Content ([2]; pH 4.5 acetate buffer, 0 h, room temperature): 0.673 mg/mL
- Content ([2]; pH 4.5 acetate buffer, 1 h, room temperature): 0.413 mg/mL
- Content ([2]; pH 4.5 acetate buffer, 4 h, room temperature): 0.218 mg/mL
- Content ([2]; pH 4.5 acetate buffer, 8 h, room temperature): 0.093 mg/mL
- Content ([2]; pH 4.5 acetate buffer, 24 h, room temperature): 0.013 mg/mL
- Content ([2]; pH 6.8 phosphate buffer, 0 h, room temperature): 1.202 mg/mL
- Content ([2]; pH 6.8 phosphate buffer, 1 h, room temperature): 1.200 mg/mL
- Content ([2]; pH 6.8 phosphate buffer, 4 h, room temperature): 1.193 mg/mL
- Content ([2]; pH 6.8 phosphate buffer, 8 h, room temperature): 1.185 mg/mL
- Content ([2]; pH 6.8 phosphate buffer, 24 h, room temperature): 1.168 mg/mL
- Content ([2]; pH 6.8 phosphate buffer, 48 h, room temperature): 1.145 mg/mL
- Content ([2]; pH 6.8 phosphate buffer, 72 h, room temperature): 1.102 mg/mL
- Solution stability ([2]; pH7.4 phosphate buffer): stable
- Content ([2]; pH 7.4 phosphate buffer, 0 h, room temperature): 1.267 mg/mL
- Content ([2]; pH 7.4 phosphate buffer, 1 h, room temperature): 1.266 mg/mL
- Content ([2]; pH 7.4 phosphate buffer, 4 h, room temperature): 1.266 mg/mL
- Content ([2]; pH 7.4 phosphate buffer, 8 h, room temperature): 1.262 mg/mL
- Content ([2]; pH 7.4 phosphate buffer, 24 h, room temperature): 1.262 mg/mL
- Content ([2]; pH 7.4 phosphate buffer, 48 h, room temperature): 1.249 mg/mL
- Content ([2]; pH 7.4 phosphate buffer, 72 h, room temperature): 1.228 mg/mL
- Content ([2]; pH 10.0 (alkaline borate buffer), 0 h, room temperature): 1.265 mg/mL
- Content ([2]; pH 10.0 (alkaline borate buffer), 1 h, room temperature): 1.265 mg/mL
- Content ([2]; pH 10.0 (alkaline borate buffer), 4 h, room temperature): 1.261 mg/mL
- Content ([2]; pH 10.0 (alkaline borate buffer), 8 h, room temperature): 1.258 mg/mL
- Content ([2]; pH 10.0 (alkaline borate buffer), 24 h, room temperature): 1.261 mg/mL
- Content ([2]; pH 10.0 (alkaline borate buffer), 48 h, room temperature): 1.257 mg/mL
- Content ([2]; pH 10.0 (alkaline borate buffer), 72 h, room temperature): 1.242 mg/mL
- Time for which API was stable in solution ([2]; room temperature, ethanol, ethanol/propylene glycol=1/1, pH7.4 and pH10.0 buffer solutions): at least 72 h
- Solution stability ([2]; room temperature, pH4.5 solution and water): unstable
- Time for which API was stable in solution ([2]; room temperature, pH6.8 solution): at least 24 h
- Solution stability ([2]; water and pH6.8 phosphate buffer): relatively poor stability
